Data: patent US8450270B2 (Indiana University Research and Technology Corporation, priority 2008, dated 2013)
Square brackets hold non-standard residues; d marks the D form. Peptide text beside a SMILES is read from it. Dab = NCC[C@H](N)C(=O)O; Aib = CC(C)(N)C(=O)O

Biological target: Glucagon Receptor (Homo sapiens, UniProt P47871)
Experiment: Functional assay-cAMP synthesis (luciferase reporter, HEK293), glucagon receptor
Conditions: for % activity*: glucagon receptor
[1] = Table 8, wildtype glucagon = 100

Glucagon Receptor, sequence (P47871 26-477): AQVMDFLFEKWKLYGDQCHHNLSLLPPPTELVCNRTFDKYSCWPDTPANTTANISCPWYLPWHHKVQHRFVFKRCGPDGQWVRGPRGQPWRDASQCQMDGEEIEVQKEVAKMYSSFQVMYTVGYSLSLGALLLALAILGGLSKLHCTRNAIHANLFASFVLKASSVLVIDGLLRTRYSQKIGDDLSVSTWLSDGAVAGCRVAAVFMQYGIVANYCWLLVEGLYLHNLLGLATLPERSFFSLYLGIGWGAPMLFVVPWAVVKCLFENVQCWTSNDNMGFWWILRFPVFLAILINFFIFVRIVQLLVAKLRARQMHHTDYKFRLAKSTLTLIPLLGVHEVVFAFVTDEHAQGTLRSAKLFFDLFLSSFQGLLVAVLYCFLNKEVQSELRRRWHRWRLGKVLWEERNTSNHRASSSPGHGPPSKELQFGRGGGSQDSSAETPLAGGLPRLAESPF

| SMILES | % activity* (Table 7) [%] | further results |
| --- | --- | --- |
| CSCC[C@H](NC(=O)[C@H](CC(C)C)NC(=O)[C@H](Cc1c[nH]c2ccccc12)NC(=O)[C@H](C)NC(=O)[C@@H](NC(=O)[C@H](Cc1ccccc1)NC(=O)[C@H](CC(=O)O)NC(=O)[C@H](C)NC(=O)[C@H](C)NC(=O)[C@H](CCCNC(=N)N)NC(=O)[C@H](CCCNC(=N)N)NC(=O)C(C)(C)NC(=O)[C@H](CC(=O)O)NC(=O)[C@H](CC(C)C)NC(=O)[C@H](Cc1ccc(O)cc1)NC(=O)[C@H](CCCCN)NC(=O)[C@H](CO)NC(=O)[C@H](Cc1ccc(O)cc1)NC(=O)[C@H](CC(=O)O)NC(=O)[C@H](CO)NC(=O)[C@@H](NC(=O)[C@H](Cc1ccccc1)NC(=O)[C@@H](NC(=O)CNC(=O)[C@H](CCC(N)=O)NC(=O)[C@H](CO)NC(=O)[C@@H](N)Cc1c[nH]cn1)[C@@H](C)O)[C@@H](C)O)C(C)C)C(=O)N[C@@H](CC(=O)O)C(=O)N[C@@H](CCC(=O)O)C(=O)O [SEQ ID NO: 68] | 15 |  |
| CCCCCCCCCCCCCCCC(=O)NCCCCCC(=O)NCCCC[C@H](NC(=O)[C@H](CC(=O)O)NC(=O)[C@H](CO)NC(=O)[C@@H](NC(=O)[C@H](Cc1ccccc1)NC(=O)[C@@H](NC(=O)CNC(=O)[C@H](CCC(N)=O)NC(=O)C(C)(C)NC(=O)[C@@H](N)Cc1c[nH]cn1)[C@@H](C)O)[C@@H](C)O)C(=O)N[C@@H](CO)C(=O)N[C@@H](CCCCN)C(=O)N[C@@H](Cc1ccc(O)cc1)C(=O)N[C@@H](CC(C)C)C(=O)N[C@@H](CC(=O)O)C(=O)NC(C)(C)C(=O)N[C@@H](CCCNC(=N)N)C(=O)N[C@@H](CCCNC(=N)N)C(=O)N[C@@H](C)C(=O)N[C@@H](CCC(N)=O)C(=O)N[C@@H](CC(=O)O)C(=O)N[C@@H](Cc1ccccc1)C(=O)N[C@H](C(=O)N[C@@H](CCC(N)=O)C(=O)N[C@@H](Cc1c[nH]c2ccccc12)C(=O)N[C@@H](CC(C)C)C(=O)N[C@@H](CCSC)C(=O)N[C@@H](CC(N)=O)C(=O)N[C@H](C(N)=O)[C@@H](C)O)C(C)C [Peptide 85, HXQGTFTSDKSKYLDXRRAQDFVQWLMNT-NH2] |  | EC50 (EC50 at Glucagon Receptor (nM), Table 10): 0.01 nM |
| CSCC[C@H](NC(=O)[C@H](CC(C)C)NC(=O)[C@H](Cc1c[nH]c2ccccc12)NC(=O)[C@H](CCC(N)=O)NC(=O)[C@@H](NC(=O)[C@H](Cc1ccccc1)NC(=O)[C@H](CC(=O)O)NC(=O)[C@H](CCC(N)=O)NC(=O)[C@H](C)NC(=O)[C@H](CCCNC(=N)N)NC(=O)[C@H](CCCNC(=N)N)NC(=O)[C@H](CO)NC(=O)[C@H](CC(=O)O)NC(=O)[C@H](CC(C)C)NC(=O)[C@H](Cc1ccc(O)cc1)NC(=O)[C@H](CCCCN)NC(=O)[C@H](CO)NC(=O)[C@H](Cc1ccc(O)cc1)NC(=O)[C@H](CC(=O)O)NC(=O)[C@H](CO)NC(=O)[C@@H](NC(=O)[C@H](Cc1ccccc1)NC(=O)[C@@H](NC(=O)CNC(=O)[C@H](CCC(N)=O)NC(=O)[C@H](CO)NC(=O)[C@@H](N)Cc1c[nH]cn1)[C@@H](C)O)[C@@H](C)O)C(C)C)C(=O)N[C@@H](CC(=O)O)C(=O)N[C@@H](CCC(=O)O)C(=O)O [D28, E29] |  | EC50 (EC50 at the glucagon receptor, Example 20): 0.06 nM |
| CC(=O)NCC[C@H](NC(=O)[C@H](CO)NC(=O)[C@@H](N)Cc1c[nH]cn1)C(=O)NCC(=O)N[C@H](C(=O)N[C@@H](Cc1ccccc1)C(=O)N[C@H](C(=O)N[C@@H](CO)C(=O)N[C@@H](CC(=O)O)C(=O)N[C@@H](Cc1ccc(O)cc1)C(=O)N[C@@H](CO)C(=O)N[C@@H](CCCCN)C(=O)N[C@@H](Cc1ccc(O)cc1)C(=O)N[C@@H](CC(C)C)C(=O)N[C@@H](CC(=O)O)C(=O)NC(C)(C)C(=O)N[C@@H](CCCNC(=N)N)C(=O)N[C@@H](CCCNC(=N)N)C(=O)N[C@@H](C)C(=O)N[C@@H](CO)C(=O)N[C@@H](CC(=O)O)C(=O)N[C@@H](Cc1ccccc1)C(=O)N[C@H](C(=O)N[C@@H](CO)C(=O)N[C@@H](Cc1c[nH]c2ccccc12)C(=O)N[C@@H](CC(C)C)C(=O)N[C@@H](CC(C)C)C(=O)N[C@@H](CC(=O)O)C(=O)N[C@@H](CCC(=O)O)C(=O)O)C(C)C)[C@@H](C)O)[C@@H](C)O [SEQ ID NO: 73] (H-HS[Dab](Ac)GTFTSDYSKYLD[Aib]RRASDFVSWLLDE-OH; N-terminus and C-terminus assumed) |  | % activity* [1]: 54% |
| CC(=O)NCC[C@H](NC(=O)[C@H](CO)NC(=O)[C@@H](N)Cc1c[nH]cn1)C(=O)NCC(=O)N[C@H](C(=O)N[C@@H](Cc1ccccc1)C(=O)N[C@H](C(=O)N[C@@H](CO)C(=O)N[C@@H](CC(=O)O)C(=O)N[C@@H](Cc1ccc(O)cc1)C(=O)N[C@@H](CO)C(=O)N[C@@H](CCCCN)C(=O)N[C@@H](Cc1ccc(O)cc1)C(=O)N[C@@H](CC(C)C)C(=O)N[C@@H](CC(=O)O)C(=O)NC(C)(C)C(=O)N[C@@H](CCCNC(=N)N)C(=O)N[C@@H](CCCNC(=N)N)C(=O)N[C@@H](C)C(=O)N[C@H](C(=O)N[C@@H](CC(=O)O)C(=O)N[C@@H](Cc1ccccc1)C(=O)N[C@H](C(=O)N[C@H](C(=O)N[C@@H](Cc1c[nH]c2ccccc12)C(=O)N[C@@H](CC(C)C)C(=O)N[C@@H](CC(C)C)C(=O)N[C@@H](CC(=O)O)C(=O)N[C@@H](CCC(=O)O)C(=O)O)[C@@H](C)O)C(C)C)[C@@H](C)O)[C@@H](C)O)[C@@H](C)O [SEQ ID NO: 74] (H-HS[Dab](Ac)GTFTSDYSKYLD[Aib]RRATDFVTWLLDE-OH; N-terminus and C-terminus assumed) |  | % activity* [1]: 46% |
| CCCC[C@H](NC(=O)[C@H](CC(C)C)NC(=O)[C@H](Cc1c[nH]c2ccccc12)NC(=O)[C@H](C)NC(=O)[C@@H](NC(=O)[C@H](Cc1ccccc1)NC(=O)[C@H](CCC(=O)O)NC(=O)[C@H](C)NC(=O)[C@H](C)NC(=O)[C@H](CCCNC(=N)N)NC(=O)[C@H](CCCNC(=N)N)NC(=O)[C@@H](NC(=O)[C@H](CC(=O)O)NC(=O)[C@H](CC(C)C)NC(=O)[C@H](Cc1ccc(O)cc1)NC(=O)[C@H](CCCCN)NC(=O)[C@H](CO)NC(=O)[C@H](Cc1ccc(O)cc1)NC(=O)[C@H](CC(=O)O)NC(=O)[C@H](CO)NC(=O)[C@@H](NC(=O)[C@H](Cc1ccccc1)NC(=O)[C@@H](NC(=O)CNC(=O)[C@H](CCC(N)=O)NC(=O)[C@H](CO)NC(=O)[C@@H](N)Cc1c[nH]cn1)[C@@H](C)O)[C@@H](C)O)[C@@H](C)O)C(C)C)C(=O)N[C@@H](CC(=O)O)C(=O)N[C@@H](CCC(=O)O)C(=O)O [SEQ ID NO: 61] | 25 | glucagon activity (cAMP induction) (FIG. 11): retains substantial glucagon activity |

Second part, led by results:

| % activity* (Table 7) [%] | SMILES | further results |
| --- | --- | --- |
| 86 | CSCC[C@H](NC(=O)[C@H](CC(C)C)NC(=O)[C@H](Cc1c[nH]c2ccccc12)NC(=O)[C@H](C)NC(=O)[C@@H](NC(=O)[C@H](Cc1ccccc1)NC(=O)[C@H](CC(=O)O)NC(=O)[C@H](C)NC(=O)[C@H](C)NC(=O)[C@H](CCCNC(=N)N)NC(=O)[C@H](CCCNC(=N)N)NC(=O)C(C)(C)NC(=O)[C@H](CC(=O)O)NC(=O)[C@H](CC(C)C)NC(=O)[C@H](Cc1ccc(O)cc1)NC(=O)[C@H](CCCCN)NC(=O)[C@H](CO)NC(=O)[C@H](Cc1ccc(O)cc1)NC(=O)[C@H](CC(=O)O)NC(=O)[C@H](CO)NC(=O)[C@@H](NC(=O)[C@H](Cc1ccccc1)NC(=O)[C@@H](NC(=O)CNC(=O)[C@H](CCNC(C)=O)NC(=O)[C@H](CO)NC(=O)[C@@H](N)Cc1c[nH]cn1)[C@@H](C)O)[C@@H](C)O)C(C)C)C(=O)N[C@@H](CC(=O)O)C(=O)N[C@@H](CCC(=O)O)C(=O)O [SEQ ID NO: 69] |  |
| 55 | CNC(=O)CC[C@H](NC(=O)[C@H](CO)NC(=O)[C@@H](N)Cc1c[nH]cn1)C(=O)NCC(=O)N[C@H](C(=O)N[C@@H](Cc1ccccc1)C(=O)N[C@H](C(=O)N[C@@H](CO)C(=O)N[C@@H](CC(=O)O)C(=O)N[C@@H](Cc1ccc(O)cc1)C(=O)N[C@@H](CO)C(=O)N[C@@H](CCCCN)C(=O)N[C@@H](Cc1ccc(O)cc1)C(=O)N[C@@H](CC(C)C)C(=O)N[C@@H](CC(=O)O)C(=O)NC(C)(C)C(=O)N[C@@H](CCCNC(=N)N)C(=O)N[C@@H](CCCNC(=N)N)C(=O)N[C@@H](C)C(=O)N[C@@H](C)C(=O)N[C@@H](CC(=O)O)C(=O)N[C@@H](Cc1ccccc1)C(=O)N[C@H](C(=O)N[C@@H](C)C(=O)N[C@@H](Cc1c[nH]c2ccccc12)C(=O)N[C@@H](CC(C)C)C(=O)N[C@@H](CCSC)C(=O)N[C@@H](CC(=O)O)C(=O)N[C@@H](CCC(=O)O)C(=O)O)C(C)C)[C@@H](C)O)[C@@H](C)O [SEQ ID NO: 70] |  |
| 13 | CCCC[C@H](NC(=O)[C@H](CC(C)C)NC(=O)[C@H](Cc1c[nH]c2ccccc12)NC(=O)[C@H](C)NC(=O)[C@@H](NC(=O)[C@H](Cc1ccccc1)NC(=O)[C@H](CCC(=O)O)NC(=O)[C@H](C)NC(=O)[C@H](C)NC(=O)[C@H](CCCNC(=N)N)NC(=O)[C@H](CCCNC(=N)N)NC(=O)[C@@H](NC(=O)[C@H](CC(=O)O)NC(=O)[C@H](CC(C)C)NC(=O)[C@H](Cc1ccc(O)cc1)NC(=O)[C@H](CCCCN)NC(=O)[C@H](CO)NC(=O)[C@H](Cc1ccc(O)cc1)NC(=O)[C@H](CC(=O)O)NC(=O)[C@H](CO)NC(=O)[C@@H](NC(=O)[C@H](Cc1ccccc1)NC(=O)[C@@H](NC(=O)CNC(=O)[C@H](CCC(=O)NC)NC(=O)[C@H](CO)NC(=O)[C@@H](N)Cc1c[nH]cn1)[C@@H](C)O)[C@@H](C)O)[C@@H](C)O)C(C)C)C(=O)N[C@@H](CC(=O)O)C(=O)N[C@@H](CCC(=O)O)C(=O)O [SEQ ID NO: 65] | EC50 (EC50 at Glucagon Receptor (nM), Table 7): 0.48 nM |
| 7 | CCCC[C@H](NC(=O)[C@H](CC(C)C)NC(=O)[C@H](Cc1c[nH]c2ccccc12)NC(=O)[C@H](C)NC(=O)[C@@H](NC(=O)[C@H](Cc1ccccc1)NC(=O)[C@H](CCC(=O)O)NC(=O)[C@H](C)NC(=O)[C@H](C)NC(=O)[C@H](CCCNC(=N)N)NC(=O)[C@H](CCCNC(=N)N)NC(=O)[C@@H](NC(=O)[C@H](CC(=O)O)NC(=O)[C@H](CC(C)C)NC(=O)[C@H](Cc1ccc(O)cc1)NC(=O)[C@H](CCCCN)NC(=O)[C@H](CO)NC(=O)[C@H](Cc1ccc(O)cc1)NC(=O)[C@H](CC(=O)O)NC(=O)[C@H](CO)NC(=O)[C@@H](NC(=O)[C@H](Cc1ccccc1)NC(=O)[C@@H](NC(=O)CNC(=O)[C@H](CC[S+](C)[O-])NC(=O)[C@H](CO)NC(=O)[C@@H](N)Cc1c[nH]cn1)[C@@H](C)O)[C@@H](C)O)[C@@H](C)O)C(C)C)C(=O)N[C@@H](CC(=O)O)C(=O)N[C@@H](CCC(=O)O)C(=O)O (stereo partly drawn) [SEQ ID NO: 66] |  |
